Assay results as given in patent US20200163984A1, “USE OF ISOVALERYL SPIRAMYCIN I, II AND/OR III IN MANUFACTURING MEDICAMENT FOR TREATING AND/OR PREVENTING TUMOR, AND MEDICAMENT” (SHENYANG FUYANG PHARMACEUTICAL TECHNOLOGY CO., LTD., priority 2017, published 2020).

System: transplanted tumor of human non-small cell lung cancer cell A549
Assay: A549 transplanted tumor in nude mice
Conditions: A549 nude mice, 30 mg/kg
Procedure: A549 cells in a logarithmic growth phase were taken and subjected to a trypan blue exclusion experiment showing that the cell viability was more than 95%, then the cells were subjected to trypsinization, centrifugation, and supernatant removal. Then cell concentration was adjusted to 1×10^7/ml with matrigel, then each nude mouse was inoculated subcutaneously with 0.2 ml of cells at its right armpit and recorded as the first day of inoculation. When the tumor grows to be greater than or equal to 100 mm^3, the mice were randomly divided into 11 groups with 6 mice in each group: a model group, a cyclophosphamide group, isovaleryl spiramycin I groups with doses of 25, 50 and 100 mg/kg, isovaleryl spiramycin II groups with doses of 25, 50 and 100 mg/kg, and isovaleryl spiramycin III groups with doses of 25, 50 and 100 mg/kg. Each group was continuously administered intragastrically for 30 days with a dose of 20 ml/kg. The mice were sacrificed the next day after drug withdrawal and the indicators were tested. The long diameter and short diameter of the tumor, and the body weight of each mouse were recorded every 3 days from drug administration to nude mouse sacrifice.
The body weight of the nude mice and the long diameter (a) and short diameter (b) of the transplanted tumor were measured every 3 days, and the tumor volume (v), relative tumor volume (RTV) and relative tumor proliferation rate (T/C) are calculated respectively according to the following formulas, wherein V=a×b^2/2; RTV=V/V0 (V0 is the tumor volume before administration, V is the tumor volume before sacrifice), and T/C (%)=treatment group RTV/model control group RTV×100%.
Each mouse was weighed and sacrificed. After the tumor was completely stripped off from the body of the mouse, the non-tumor tissues such as blood stains and fat were removed to weigh the tumor and calculate the tumor growth inhibition rate. The average tumor weight of each group of mice is used as an indicator of efficacy. Tumor growth inhibition rate (%)=(1−the average tumor weight of the treatment group/the average tumor weight of the model group)×100%.

With `O=P1(N(CCCl)CCCl)NCCCO1` (centres unmarked) [Cyclophosphamide, cyclophosphamide, reference compound] the “Inhibition Rate (%)” value was 70.59%, the “Relative Tumor Proliferation Rate (T/C)” value was 39.73% and the “Relative Tumor Volume (RTV)” value was 9.47 ± 2.91. For the same compound, the “Tumor Weight” value was 0.70 ± 0.39 g, the “Body Weight (g) (d1)” value (d1) was 21.89 ± 1.22 g and the “Tumor Volume (mm3) (d 1)” value (d1) was 115.15 ± 10.00 mm3. The “Body Weight (g) (d30)” value (d30) was 19.27 ± 1.49 g and the “Tumor Volume (mm3) (d30)” value (d30) was 733.89 ± 352.79 mm3.
